Assay results: patent EP3720857B1, “2-OXO-5H-CHROMENO[4,3-B]PYRIDINES FOR USE IN THE TREATMENT OF HEPATITIS B” (Galapagos NV, priority 2017, dated 2019)

The molecules below were run on hepatitis virus B (HBV) infection (assay: HepG2 NTCP assay (HBcAg staining as marker of HBV infection)). Details: HepG2-NTCP cells infected with HBV, HBV core antigen (HBcAg) as marker of infection.
Assay type: cell-based
Source text: The principle of the hepG2-NTCP assay is to measure the effect of a test compound on the inhibition of the hepatitis virus B (HBV) infection compared to a reference compound. To be able to infect the hepatocellular carcinoma cells (HepG2) with HBV, HepG2 cells were stably transfected with the Na+-taurocholate co-transporting polypeptide (NTCP) receptor, also referred to as Sodium/bile acid cotransporter (SLC10A1), which is necessary for HBV infection. In this assay the HBV core antigen (HBcAg) is used as a marker of HBV infection. Nuclei count is used as an indication for compound toxicity.
On day one, HepG2-NTCP cells ((Ni et al., 2014)) are seeded at 5000 cells in 50 µL per well in assay medium (DMEM high glucose supplemented with 10% non-heat inactivated (non HI) fetal bovine serum (FBS), 1% P/S, 1% L-glutamine and 1% MEM NEAA) in 384 well plate and incubated at 37°C, 5% CO2 overnight.
Compounds are prepared as 10 point serial dilutions using 1/3 dilution steps in 100% DMSO starting from 10 mM highest concentration, unless otherwise requested for very potent compounds, which started from 5mM or 1mM stock. Compounds are further diluted 1/500 in assay medium.
A negative control (vehicle: 24 wells with 0.2% DMSO) and positive control (24 wells with 100nM Myrcludex B (Cas no.: 406461-66-3), 0.2% DMSO and in 10 point DR) are included in the experiments.
On the second day, 40µl medium is removed from the cells with the plate washer (Select 405 microplate washer, Biotek). 15 µL of diluted compound series is transferred to the assay plate and cells are infected with 15 µL of HBV mix (HBV virus, 4%PEG, 1%DMSO in assay medium). The infection is performed in assay medium containing final concentration of 1% DMSO. The assay plate is incubated at 37°C, 5% CO2 overnight.
The next day, 30µl compound and HBV mix are removed from the assay plate with the plate washer and 30 µL of compound series diluted 1/500 in assay medium containing final concentration of 2.5% DMSO is added to the cell assay plate. The assay plate is incubated at 37°C, 5% CO2 for 5 days.
After 5 days of incubation, supernatant is removed from the cells with the plate washer. Cells are fixed with 50 µL of 3.7% formaldehyde added with the Well mate (Matrix technologies) and incubated for 30 min at room temperature. After fixation, cells are washed four times with phosphate buffer saline (1xPBS, 137mM NaCl, 10mM na2HPO4, 2.7mM KCl, 1.8mM KH2PO4 at pH7.4). The cells are finally subjected to HBc staining.
First, the assay plate is blocked with blocking buffer (2%FBS, 3% BSA, 0.2% TritonX100 in PBS) for 1 h at room temperature (optional to block overnight at 4°C).
After 4 washes of PBST (1XPBS + 0.05% Tween) with the plate washer, the assay plate is incubated with 30 µL diluted primary antibody (1/700 Rabbit anti-HBV core antigen, Dako, B0586 or 1/350 Rabbit anti HBV core antigen, Invitrogen, PA516368) in blocking buffer and incubated for 90 min at room temperature.
After 4 washes of PBST with the plate washer, the assay plate is incubated with 50 µL of secondary antibody (Donkey-anti-rabbit Alexa 488 antibody, Lifetechnologies A21206) 1/500 diluted in blocking buffer and incubated for 60 min at room temperature and in the dark.
The assay plate is washed 4 times with PBST on the plate washer and incubated with 50µL of DAPI (Sigma D9542, stock 5mg/mL) 1/10000 diluted in PBS for 15-30 min at room temperature and in the dark. The assay plate is now ready for read out on the InCell Analyzer 2200 (GE Healthcare).
Raw data are generated following read-out performed on InCell 2200 and are imported into the galapagos LIMS for automated calculation of percentage inhibition (PIN) and toxicity by nuclei count, using the control wells mentioned above, and creation of Dose Response curves. Table V. Hepg2 NTCP assay activity of illustrative compounds of the invention

Row | SMILES | IC50 [nM]
1 | COc1cc2c(cc1OCC1(C#N)CCC1)OC(C(C)C)c1cc(C(=O)O)c(=O)n(C3CC3)c1-2 (stereo not shown) [Compound 43, 8-[(1-cyanocyclobutyl)methoxy]-1-cyclopropyl-5-isopropyl-9-methoxy-2-oxo-5H-chromeno[4,3-b]pyridine-3-carboxylic acid] | 1 to 20
2 | [2H]C([2H])([2H])Oc1cc2c(cc1OC)-c1c(cc(C(=O)O)c(=O)n1C1CC1)C(C(C)C)O2 (stereo not shown) [Compound 20, 1-cyclopropyl-5-isopropyl-9-methoxy-2-oxo-8-(trideuteriomethoxy)-5H-chromeno[4,3-b]pyridine-3-carboxylic acid] | 1 to 20
3 | CCC1Oc2cc(OCCCOC)c(OC)cc2-c2c1cc(C(=O)O)c(=O)n2C1CC1 (stereo not shown) [Compound 12, 1-cyclopropyl-5-ethyl-9-methoxy-8-(3-methoxypropoxy) -2-oxo-5H-chromeno[4,3-b]pyridine-3-carboxylic acid] | 1 to 20
4 | COCCCOc1cc2c(cc1Br)-c1c(cc(C(=O)O)c(=O)n1C1CC1)C(C(C)C)O2 (stereo not shown) [Compound 71, 9-bromo-1-cyclopropyl-5-isopropyl-8-(3-methoxypropoxy) -2-oxo-5H-chromeno[4,3-b]pyridine-3-carboxylic acid] | 0.001 to 1
5 | COCCCOc1cc2c(cc1Cl)-c1c(cc(C(=O)O)c(=O)n1C1CCC1)C(C1(C)COC1)O2 (stereo not shown) [Compound 48, 9-chloro-1-cyclobutyl-8-(3-methoxypropoxy) -5-(3-methyloxetan-3-yl)-2-oxo-5H-chromeno[4,3-b]pyridine-3-carboxylic acid] | 0.001 to 1
6 | COc1cc2c(cc1OCC1(C)COC1)OC(C(C)C)c1cc(C(=O)O)c(=O)n(C3CC3)c1-2 (stereo not shown) [Compound 28, 1-cyclopropyl-5-isopropyl-9-methoxy-8-[(3-methyloxetan-3-yl)methoxy]-2-oxo-5H-chromeno[4,3-b]pyridine-3-carboxylic acid] | 1 to 20
7 | CC1(C2Oc3cc(OCC4CN(S(C)(=O)=O)C4)c(Cl)cc3-c3c2cc(C(=O)O)c(=O)n3C2CC2)COC1 (stereo not shown) [Compound 72, 9-chloro-1-cyclopropyl-5-(3-methyloxetan-3-yl)-8-[(1-methylsulfonylazetidin-3-yl)methoxy]-2-oxo-5H-chromeno[4,3-b]pyridine-3-carboxylic acid] | 1 to 20
8 | COc1cc2c(cc1OCC1COC1)OC(C(C)C)c1cc(C(=O)O)c(=O)n(C3CC3)c1-2 (stereo not shown) [Compound 34, 1-cyclopropyl-5-isopropyl-9-methoxy-8-(oxetan-3-ylmethoxy)-2-oxo-5H-chromeno[4,3-b]pyridine-3-carboxylic acid] | 1 to 20
9 | COc1cc2c(cc1OC)-c1c(cc(C(=O)O)c(=O)n1C1CC1)C(C(C)(C)C)O2 (stereo not shown) [Compound 9, 5-tert-butyl-1-cyclopropyl-8,9-dimethoxy-2-oxo-5H-chromeno[4,3-b]pyridine-3-carboxylic acid] | 1 to 20
10 | CC(C)C1Oc2cc(OC[C@@H]3COCCO3)c(Cl)cc2-c2c1cc(C(=O)O)c(=O)n2C1CC1 (stereo partly drawn) [Compound 50, 9-chloro-1-cyclopropyl-8-[[(2S)-1,4-dioxan-2-yl]methoxy]-5-isopropyl-2-oxo-5H-chromeno[4,3-b]pyridine-3-carboxylic acid] | 0.001 to 1
11 | CCOCCOc1cc2c(cc1OC)-c1c(cc(C(=O)O)c(=O)n1C1CC1)C(C(C)C)O2 (stereo not shown) [Compound 42, 1-cyclopropyl-8-(2-ethoxyethoxy)-5-isopropyl-9-methoxy-2-oxo-5H-chromeno[4,3-b]pyridine-3-carboxylic acid] | 1 to 20
12 | CC(C)C1Oc2cc(OC[C@H]3COCCO3)c(Cl)cc2-c2c1cc(C(=O)O)c(=O)n2C1CC1 (stereo partly drawn) [Compound 51, 9-chloro-1-cyclopropyl-8-[[(2R)-1,4-dioxan-2-yl]methoxy]-5-isopropyl-2-oxo-5H-chromeno[4,3-b]pyridine-3-carboxylic acid] | 0.001 to 1

Next, values leading:

Row | IC50 [nM] | SMILES
13 | 1 to 20 | CC1(C2Oc3cc(OCC4CC4)c(Cl)cc3-c3c2cc(C(=O)O)c(=O)n3C2CC2)COC1 (stereo not shown) [Compound 57, 9-chloro-1-cyclopropyl-8-(cyclopropylmethoxy)-5-(3-methyloxetan-3-yl)-2-oxo-5H-chromeno[4,3-b]pyridine-3-carboxylic acid]
14 | > 100 | O=C(O)c1cc2c(n(C3CC3)c1=O)-c1cc(F)c(F)cc1OC2 [Compound 59, 1-cyclopropyl-8,9-difluoro-2-oxo-5H-chromeno[4,3-b]pyridine-3-carboxylic acid]
15 | 0.001 to 1 | CCOc1cc2c(cc1Cl)-c1c(cc(C(=O)O)c(=O)n1C1CC1)C(C1(C)COC1)O2 (stereo not shown) [Compound 56, 9-chloro-1-cyclopropyl-8-ethoxy-5-(3-methyloxetan-3-yl)-2-oxo-5H-chromeno[4,3-b]pyridine-3-carboxylic acid]
16 | > 100 | COCCCOc1cc2c(cc1F)-c1c(cc(C(=O)O)c(=O)n1C1CC1)[C@@H](C(C)C)O2 [Compound 45, (5R)-1-cyclopropyl-9-fluoro-5-isopropyl-8-(3-methoxypropoxy)-2-oxo-5H-chromeno[4,3-b]pyridine-3-carboxylic acid]
17 | 0.001 to 1 | COc1cc2c(cc1Cl)-c1c(cc(C(=O)O)c(=O)n1C1CC1)C(C1(C)COC1)O2 (stereo not shown) [Compound 55, 9-chloro-1-cyclopropyl-8-methoxy-5-(3-methyloxetan-3-yl)-2-oxo-5H-chromeno[4,3-b]pyridine-3-carboxylic acid]
18 | > 100 | O=C(O)c1cc2c(n(C3CC3)c1=O)-c1cc(Cl)c(F)cc1OC2 [Compound 60, 9-chloro-1-cyclopropyl-8-fluoro-2-oxo-5H-chromeno[4,3-b]pyridine-3-carboxylic acid]
19 | 20 to 100 | COc1cc2c(cc1OC)-c1c(cc(C(=O)O)c(=O)n1C1CC1)C(CO)O2 (stereo not shown) [Compound 18, 1-cyclopropyl-5-(hydroxymethyl)-8,9-dimethoxy-2-oxo-5H-chromeno[4,3-b]pyridine-3-carboxylic acid]
20 | 1 to 20 | COCCCOc1cc2c(cc1Cl)-c1c(cc(C(=O)O)c(=O)n1C1CC1)C(C)(C)O2 [Compound 14, 9-chloro-1-cyclopropyl-8-(3-methoxypropoxy) -5,5-dimethyl-2-oxo-chromeno [4,3-b]pyridine-3-carboxylic acid]
21 | 0.001 to 1 | CC1(C2Oc3cc(OCC(F)(F)F)c(Cl)cc3-c3c2cc(C(=O)O)c(=O)n3C2CC2)COC1 (stereo not shown) [Compound 68, 9-chloro-1-cyclopropyl-5-(3-methyloxetan-3-yl)-2-oxo-8-(2,2,2-trifluoroethoxy)-5H-chromeno[4,3-b]pyridine-3-carboxylic acid]
22 | 1 to 20 | COc1cc2c(cc1Cl)-c1c(cc(C(=O)O)c(=O)n1C1CC1)C(C1COC1)O2 (stereo not shown) [Compound 21, 9-chloro-1-cyclopropyl-8-methoxy-5-(oxetan-3-yl)-2-oxo-5H-chromeno[4,3-b]pyridine-3-carboxylic acid]
23 | 0.001 to 1 | COCCCOc1cc2c(cc1Cl)-c1c(cc(C(=O)O)c(=O)n1C1CC1)C(C1COC1)O2 (stereo not shown) [Compound 13, 9-chloro-1-cyclopropyl-8-(3-methoxypropoxy) -5-(oxetan-3-yl)-2-oxo-5H-chromeno[4,3-b] pyridine-3-carboxylic acid]
24 | 0.001 to 1 | CCC1Oc2cc(OCCCOC)c(Cl)cc2-c2c1cc(C(=O)O)c(=O)n2C1CC1 (stereo not shown) [Compound 11, 9-chloro-1-cyclopropyl-5-ethyl-8-(3-methoxypropoxy) -2-oxo-5H-chromeno[4,3-b]pyridine-3-carboxylic acid]
25 | 0.001 to 1 | COCCCOc1cc2c(cc1Cl)-c1c(cc(C(=O)O)c(=O)n1C1CC1)C(C1(C#N)CC1)O2 (stereo not shown) [Compound 22, 9-chloro-5-(1-cyanocyclopropyl)-1-cyclopropyl-8-(3-methoxypropoxy) -2-oxo-5H-chromeno[4,3-b]pyridine-3-carboxylic acid]
